Measurements from publication PMC3365589 (Journal of the American Chemical Society, 2011).

Legend:
human α7 nAChR = human α7 nAChR (Homo sapiens, UniProt P36544); type: cell-based
α1_2βγδ (Torpedo) nAChR [1] = assay: Equilibrium competition binding with [125I]α-BTX on Torpedo membranes; conditions: read-out: Ki ± SEM
chimeric α7-5HT3 nAChR = chimeric α7-5HT3 nAChR (UniProt P22770+P23979, M226I/T225I); type: binding; conditions: read-out: Ki ± SEM; α7–5HT3 (chick), [125I]α-BTX
human α4β2 nAChR = human α4β2 nAChR (Homo sapiens, UniProt P17787+P43681); type: binding
human α3β2 nAChR = human α3β2 nAChR (Homo sapiens, UniProt P17787+P32297); type: binding; conditions: read-out: Ki ± SEM, [3H]epibatidine
human M1 mAChR = assay: [3H]NMS binding inhibition, CHO cell membranes, M1; conditions: 1 μM
human M2 mAChR = assay: [3H]NMS binding inhibition, CHO cell membranes, M2; conditions: 1 μM
human M3 mAChR = assay: [3H]NMS binding inhibition, CHO cell membranes, M3; conditions: 1 μM
human M4 mAChR = assay: [3H]NMS binding inhibition, CHO cell membranes, M4; conditions: 1 μM
human M5 mAChR = assay: [3H]NMS binding inhibition, CHO cell membranes, M5; conditions: 1 μM, M5, [3H]NMS
calcium channels = assay: Broad receptor binding screening; conditions: 10 μM
mice = conditions: intraperitoneal injection of a lethal dose
α1_2βγδ (Torpedo) nAChR [2] = conditions: read-out: Kd of radioligand on muscle-type receptor; cited from earlier work

With `C=C1CCCC2=NC[C@H](C)[C@@H](C)C[C@@]23CCC(C(=O)O)=C[C@@H]3[C@@H]2O[C@]3(C[C@H]4CCC[C@@]5(CC[C@@]6(O[C@@H](CC[C@@]6(C)O)C1)O5)O4)C[C@@H](C)[C@@H](O)[C@H]2O3` [PnTX A, pinnatoxin A] the “Effect on rate of desensitization of ACh-evoked currents” value (human α7 nAChR; 350 μM ACh, −60 mV) was “did not appear to affect the rate of desensitization”, the “Direct agonist effect (current evoked when applied on its own)” value (human α7 nAChR; 0.1–50 nM, n = 6) was “did not evoke any current” and the “Reversibility of blocking action on α7 nAChR” value (human α7 nAChR; after a 10–15 min washout) was “not reversible”. The Ki (α1_2βγδ (Torpedo) nAChR [1]) was 2.8 ± 0.03 nM, the Ki (chimeric α7-5HT3 nAChR) was 0.35 ± 0.04 nM and the “Fraction of [3H]epibatidine displaced (partial antagonist property)” value (human α4β2 nAChR) was “approximately half”. The Ki (human α4β2 nAChR; read-out: Ki ± SEM, α4β2 (human), [3H]epibatidine) was 15.6 ± 5.2 nM, the Ki (human α3β2 nAChR) was 9.4 ± 1.9 nM and the “Effect on 3H-NMS binding” value (human M1 mAChR) was “no significant effect”. For the same compound, the “Effect on 3H-NMS binding” value (human M2 mAChR) was “no significant effect”, the “Effect on 3H-NMS binding” value (human M3 mAChR) was “no significant effect” and the “Effect on 3H-NMS binding” value (human M4 mAChR) was “no significant effect”. The Radiotracer displacement (human M5 mAChR) was 35%, the “Binding activity for calcium channels” value (calcium channels) was “no significant binding activity” and the “Toxicological profile (symptoms)” value (mice) was “transient mouse hyperactivity, followed by a decrease in respiratory rate with prominent abdominal breathing leading to death due to respiratory paralysis”.

For α-bungarotoxin [α-BTX], the Kd (α1_2βγδ (Torpedo) nAChR [2]) is listed as 0.05 nM.
